What follows are compounds tested against T1, human kinase Mps-1 (Homo sapiens, UniProt P33981) (assay: Mps-1 kinase assay (TR-FRET)). Conditions: N-terminally GST-tagged human full length recombinant Mps-1; 10 µM ATP; 1 µM peptide substrate; 15 min pre-incubation, 60 min reaction at 22°C; read-out: Mps1 IC50.
T1 construct: N-terminally GST-tagged human full length recombinant Mps-1 kinase; purchased Invitrogen, Karslruhe, Germany PV4071
T1 sequence (P33981 1-857): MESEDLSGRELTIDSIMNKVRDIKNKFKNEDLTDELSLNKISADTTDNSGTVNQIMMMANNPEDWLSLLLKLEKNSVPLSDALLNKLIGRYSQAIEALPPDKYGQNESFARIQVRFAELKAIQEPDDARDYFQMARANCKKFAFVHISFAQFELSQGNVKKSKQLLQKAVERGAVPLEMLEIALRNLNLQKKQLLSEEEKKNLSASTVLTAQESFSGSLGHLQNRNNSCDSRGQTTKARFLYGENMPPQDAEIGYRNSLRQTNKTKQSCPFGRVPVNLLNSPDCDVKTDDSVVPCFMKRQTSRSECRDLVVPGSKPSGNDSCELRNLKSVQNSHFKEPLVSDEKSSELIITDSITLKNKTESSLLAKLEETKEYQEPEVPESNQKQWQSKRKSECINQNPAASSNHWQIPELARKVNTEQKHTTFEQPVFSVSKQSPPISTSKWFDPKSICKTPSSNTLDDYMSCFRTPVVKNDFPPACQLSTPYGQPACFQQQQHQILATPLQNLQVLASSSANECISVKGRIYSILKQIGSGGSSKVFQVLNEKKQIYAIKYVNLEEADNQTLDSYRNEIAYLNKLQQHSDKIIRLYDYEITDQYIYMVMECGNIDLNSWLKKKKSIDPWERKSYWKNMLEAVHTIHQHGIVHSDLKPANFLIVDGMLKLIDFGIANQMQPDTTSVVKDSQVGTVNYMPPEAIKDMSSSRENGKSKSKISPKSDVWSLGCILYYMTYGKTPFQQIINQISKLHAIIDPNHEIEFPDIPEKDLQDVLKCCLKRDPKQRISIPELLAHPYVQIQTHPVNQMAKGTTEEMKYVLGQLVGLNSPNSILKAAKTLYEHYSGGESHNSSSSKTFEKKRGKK
Type: biochemical
Description: The human kinase Mps-1 phosphorylates a biotinylated substrate peptide. Detection of the phosphorylated product is achieved by time-resolved fluorescence resonance energy transfer (TR-FRET) from Europium-labelled anti-phospho-Serine/Threonine antibody as donor to streptavidin labelled with cross-linked allophycocyanin (SA-XLent) as acceptor. Compounds are tested for their inhibition of the kinase activity.
N-terminally GST-tagged human full length recombinant Mps-1 kinase (purchased from Invitrogen, Karslruhe, Germany, cat. no PV4071) was used. As substrate for the kinase reaction a biotinylated peptide of the amino-acid sequence PWDPDDADITEILG (C-terminus in amide form, purchased from Biosynthan GmbH, Berlin) was used.
For the assay 50 nL of a 100-fold concentrated solution of the test compound in DMSO was pipetted into a black low volume 384well microtiter plate (Greiner Bio-One, Frickenhausen, Germany), 2 µl of a solution of Mps-1 in assay buffer [0.1 mM sodium-ortho-vanadate, 10 mM MgCl2, 2 mM DTT, 25 mM Hepes pH 7.7, 0.05% BSA, 0.001% Pluronic F-127] were added and the mixture was incubated for 15 min at 22°C to allow pre-binding of the test compounds to Mps-1 before the start of the kinase reaction. […]
The resulting mixture was incubated 1 h at 22°C to allow the binding of the phosphorylated peptide to the anti-phospho(Ser/Thr)-Europium-antibody. Subsequently the amount of phosphorylated substrate was evaluated by measurement of the resonance energy transfer from the Europium-labelled anti-phospho(Ser/Thr) antibody to the Streptavidin-XLent. Therefore, the fluorescence emissions at 620 nm and 665 nm after excitation at 350 nm was measured in a Viewlux TR-FRET reader (PerkinElmer LAS, Rodgau-Jugesheim, Germany). The "blank-corrected normalized ratio" ( a Viewlux specific readout, similar to the traditional ratio of the emissions at 665 nm and at 622 nm, in which blank and Eudonor crosstalk are subtracted from the 665 nm signal before the ratio is calculated) was taken as the measure for the amount of phosphorylated substrate. […]
COC(=O)c1nc2c(NCC(C)C)nc(-c3ccccc3)cn2c1-c1ccc(C(=O)NC2CC2)cc1 [Example 3-1, Methyl 3-[4-(cyclopropylcarbamoyl)phenyl]-8-[(2-methylpropyl)amino]-6-phenylimidazo[1,2-a]pyrazine-2-carboxylate] showed an IC50 of 4250 nM. With CC(C)CNc1nc(-c2ccccc2)cn2c(-c3ccc(C(=O)NC4CC4)cc3)c(N)nc12 [Example 4-1, 4-[2-Amino-8-(isobutylamino)-6-phenylimidazo[1,2-a]pyrazin-3-yl]-N-cyclopropylbenzamide] the IC50 was 16 nM. With CC(C)CNc1nc(-c2ccccc2)cn2c(-c3ccc(C(=O)NC4CC4)cc3)c(CO)nc12 [Example 1-1, N-cyclopropyl-4-[2-(hydroxymethyl)-8-(isobutylamino)-6-phenylimidazo[1,2-a]pyrazin-3-yl]benzamide] the IC50 was 178 nM.

— patent EP2651946B1, “2-SUBSTITUTED IMIDAZOPYRAZINES FOR USE AS MPS-1 AND TKK INHIBITORS IN THE TREATMENT OF HYPERPROLIFERATIVE DISORDERS” (Bayer Intellectual Property GmbH, priority 2010, dated 2012)
